Test results published in patent US9718840B2, “Condensed 5-oxazolidinone derivative” (SUMITOMO DAINIPPON PHARMA CO., LTD., priority 2014, dated 2017).

Experiments:
Human tryptase = experiment: Enzyme selectivity evaluation test: tryptase; format: biochemical
Protocol: S-2288 (H-D-Ile-Pro-Arg-pNA.2HCl) was added as the substrate at a final concentration of 300 μmol/L. After progression of the reaction, the absorbance was measured at OD 405 nm.

[1] = Dog PK test (Test Example 7); format: in vivo; conditions: plasma, 1 mg/kg, male beagle, intravenous, 1 mg/2 mL/kg, read-out: AUC from 0 hours to 24 hours (compound of Reference Example 2-6 in plasma)
Protocol: The compound of Reference Example 2-6 was dissolved in a mixed solution of saline/0.1 N HCl=9/1, and this solution was intravenously administered at a dose of 1 mg/2 mL/kg to a male beagle. Blood collection was carried out 0.25, 0.5, 1, 2, 4, 6, and 24 hours after administration. 2 mL of blood was collected using a syringe packed with 20 μL of Novo-Heparin Injection, transferred to a centrifugal tube cooled in ice, and centrifuged at 3000 rpm at 4° C. for 10 minutes to prepare plasma. 200 μL of the prepared plasma was added to a tube containing 600 μL of acetonitrile and mixed for approximately 10 seconds using a vortex mixer. Then, the concentration of the compound of Reference Example 2-6 was measured.
The compound of Example 1 was dissolved in a 0.5% aqueous methylcellulose solution, and this solution was orally administered at a dose of 5 mg/5 mL/kg to a male beagle fasted for 16 hours. Blood collection was carried out 0.5, 1, 2, 4, 6, and 24 hours after administration. 2 mL of blood was collected using a syringe packed with 20 μL of Novo-Heparin Injection, transferred to a centrifugal tube cooled in ice, and centrifuged at 3000 rpm at 4° C. for 10 minutes to prepare plasma. […] Then, the concentration of the compound of Reference Example 2-6 was measured.

[2] = target: T1, Tissue Factor (TF):Factor VIIa (FVIIa) Complex (Homo sapiens, UniProt P08709); experiment: Enzyme selectivity evaluation test: TF:FVIIa complex; format: biochemical
T1 construct: Human FVIIa (manufactured by Enzyme Research Laboratories); purchased Enzyme Research Laboratories (FVIIa); R&D Systems, Inc. (TF)
Protocol: S-2288 (H-D-Ile-Pro-Arg-pNA.2HCl) (manufactured by Chromogenix) was added as the substrate at a final concentration of 300 μmol/L. After progression of the reaction, the absorbance was measured at OD 405 nm.

Human FXIa = Human FXIa (Homo sapiens, UniProt P03951); experiment: In vitro activated factor XI (FXIa) inhibition test; format: biochemical; design: purchased Enzyme Research Laboratories; conditions: substrate S-2366, 37° C., 10 minutes; read-out: FXIa Inhibition activity IC50
[3] = test system: Rabbit nail bleeding models; experiment: Bleeding time evaluation test using rabbit nail bleeding model; format: in vivo; conditions: for Bleeding time: Experiment 2 (maximum 60 minutes), rabbit; for Bleeding time (fold-increase): Experiment 2, ratio to vehicle group average
Protocol: Rabbit nail bleeding models were prepared by a modification of the report of Wong et al. (Wong P C. et al., J. Thromb. Haemost. 7: 1313-1320 (2009)). Male rabbits (JW, 1.5 to 3.5 kg) were anesthetized by the inhalation of isoflurane (ISOFLU®, manufactured by DS Pharma Animal Health Co., Ltd.) (introduced anesthesia: 4%, continuous anesthesia: 2 to 3%).
For the intravenous administration of a test drug or a vehicle, an indwelling needle was inserted to the auricular vein, and the test drug or the vehicle was promptly intravenously administered (0.67 mL/kg) and then continuously intravenously administered (1 mL/kg/hr). One hour after the start of administration, three posterior toenails were cut and dipped in saline heated to approximately 37° C., and the bleeding time was measured. The bleeding time was defined as a time from the cutting to the arrest of bleeding, and an average value from the three nails was used. The measurement time was 30 minutes at the maximum for experiment 1 and 60 minutes at the maximum for experiment 2. In each experiment, if bleeding for 30 minutes or 60 minutes or longer was confirmed, the bleeding time was regarded as 30 minutes or 60 minutes.

[4] = test system: Rabbit venous thrombus models; experiment: Effect of combined use with antiplatelet drug using rabbit AVST model; format: in vivo; conditions: alone
Protocol: Rabbit venous thrombus models were prepared by a modification of the report of Wong et al. (Wong P C. et al., J. Pharmacol. Exp. Ther. 292: 351-357 (2000)). […] A tracheostomy tube was inserted to each rabbit, which was then ventilated using a respirator. For the intravenous administration of a test drug and blood collection, catheters were inserted to the right femoral vein and the right femoral artery, respectively. An arteriovenous shunt filled with saline was inserted to the carotid artery and the jugular vein. […] Also, 4-0 silk thread having a length of 5 cm was indwelled in the arteriovenous shunt. Blood was sent for 30 minutes from the carotid artery to the jugular vein via the arteriovenous shunt. The shunt was removed, and the weight of the silk thread covered with thrombus was measured. The weight of the silk thread measured before the experiment was subtracted from the measured weight, and the obtained value was used as a wet thrombus weight. One hour before the open of the arteriovenous shunt, the test drug or a vehicle was promptly intravenously administered (0.67 mL/kg) and then continuously intravenously administered (1 mL/kg/hr). The continuous injection was continued throughout the experiment. […] STA calcium chloride (manufactured by Roche Diagnostics K.K.) was added in an amount equal thereto, and the time required for coagulation was measured.

[5] = dose 0.5 + 0.75 mg/kg + mg/kg/h i.v.
[6] = dose 1.5 + 2.25 mg/kg + mg/kg/h i.v.
[7] = dose 5.0 + 7.5 mg/kg + mg/kg/h i.v.
[8] = dose 15 + 22..5 mg/kg + mg/kg/h i.v.

Chain of Human FXIa (P03951 388-625 limits assumed): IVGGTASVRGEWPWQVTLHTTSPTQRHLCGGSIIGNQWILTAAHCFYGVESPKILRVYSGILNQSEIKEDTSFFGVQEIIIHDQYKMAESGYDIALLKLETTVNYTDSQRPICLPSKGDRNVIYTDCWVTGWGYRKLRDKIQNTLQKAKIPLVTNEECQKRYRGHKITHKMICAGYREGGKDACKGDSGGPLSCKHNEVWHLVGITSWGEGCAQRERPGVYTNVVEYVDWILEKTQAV
Chain of Human FXIa (P03951 19-387 partner limits assumed): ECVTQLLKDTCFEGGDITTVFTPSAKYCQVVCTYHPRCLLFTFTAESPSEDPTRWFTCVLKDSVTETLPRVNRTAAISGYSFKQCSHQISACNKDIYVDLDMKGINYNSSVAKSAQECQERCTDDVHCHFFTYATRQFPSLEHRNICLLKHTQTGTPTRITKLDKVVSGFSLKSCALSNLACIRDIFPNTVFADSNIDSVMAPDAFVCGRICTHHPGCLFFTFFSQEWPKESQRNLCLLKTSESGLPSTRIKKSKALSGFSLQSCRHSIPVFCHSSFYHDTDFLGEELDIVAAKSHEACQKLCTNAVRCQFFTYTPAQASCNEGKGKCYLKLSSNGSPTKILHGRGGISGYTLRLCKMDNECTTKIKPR
T1 sequence (P08709 213-466 limits assumed): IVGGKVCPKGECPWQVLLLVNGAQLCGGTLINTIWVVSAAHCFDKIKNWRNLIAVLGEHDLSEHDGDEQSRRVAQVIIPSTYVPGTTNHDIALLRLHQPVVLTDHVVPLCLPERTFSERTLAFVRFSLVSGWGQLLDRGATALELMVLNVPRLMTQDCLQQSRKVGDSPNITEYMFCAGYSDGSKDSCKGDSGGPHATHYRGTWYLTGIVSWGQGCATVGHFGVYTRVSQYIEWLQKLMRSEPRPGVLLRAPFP
T1 sequence (P08709 61-212 partner limits assumed): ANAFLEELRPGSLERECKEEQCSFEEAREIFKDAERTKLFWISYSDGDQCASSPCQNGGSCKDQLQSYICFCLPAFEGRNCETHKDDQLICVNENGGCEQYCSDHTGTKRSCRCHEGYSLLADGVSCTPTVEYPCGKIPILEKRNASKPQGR
T1 sequence (P13726 33-251 partner limits assumed): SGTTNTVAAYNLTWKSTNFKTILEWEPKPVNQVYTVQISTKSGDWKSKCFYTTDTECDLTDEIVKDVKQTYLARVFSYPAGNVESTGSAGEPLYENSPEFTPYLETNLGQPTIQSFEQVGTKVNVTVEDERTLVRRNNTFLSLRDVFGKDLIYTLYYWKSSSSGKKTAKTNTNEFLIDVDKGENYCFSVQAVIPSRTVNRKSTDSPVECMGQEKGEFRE

## Cl.N[C@H](CF)[C@H]1CC[C@H](C(=O)N2CC[C@@H](C3CCCCC3)[C@H]2C(=O)Nc2ccc3[nH]c(C(=O)O)cc3c2)CC1 [Reference Example 2-6, 5-{[(3S)-1-({trans-4-[(1S)-1-Amino-2-fluoroethyl]cyclohexyl}carbonyl)-3-cyclohexyl-L-prolyl]amino}-1H-indole-2-carboxylic acid hydrochloride]
Human tryptase
  IC50: > 10 µM
[1]
  AUC: 5220 ng·h/mL
[2]
  IC50: > 10 µM
Human FXIa
  IC50: 0.006 µM
[3]; [5]
  Bleeding time: 843 ± 270 s
  Bleeding time (fold-increase): 1.5 ± 0.5 fold-increase
[3]; [6]
  Bleeding time: 772 ± 234 s
  Bleeding time (fold-increase): 1.3 ± 0.4 fold-increase
[3]; [7]
  Bleeding time: 768 ± 236 s
  Bleeding time (fold-increase): 1.3 ± 0.4 fold-increase
[3]; [8]
  Bleeding time: 656 ± 198 s
  Bleeding time (fold-increase): 1.1 ± 0.3 fold-increase
[4]; [5]
  PT (ratio): 1.00 ± 0.02 ratio
  Thrombus weight: 66 ± 22 mg
  aPTT (ratio): 1.59 ± 0.15 ratio
[4]; [6]
  PT (ratio): 1.01 ± 0.00 ratio
  Thrombus weight: 36 ± 6 mg
  aPTT (ratio): 1.84 ± 0.10 ratio
